Data: US12691107B2, “Methods for the treatment and prevention of lung infections caused by gram-positive bacteria, fungus, or virus by administration of tafenoquine” (priority 2020, dated 2026)
Where “and” joins values, the source holds several entries; their conditions need not be identical. Equal values may be shown once. Read-outs that look alike come from different tables or passages of the source.

Columns and labels:
Enterococcus faecalis = assay: Antibacterial MIC (broth microdilution); assay type: cell-based
P. aeruginosa = assay: Antibacterial MIC (broth microdilution); assay type: cell-based; conditions: Pseudomonas aeruginosa
Candida auris = assay: Antifungal MIC (RPMI-1640 microdilution); assay type: cell-based
Altenaria sp. = assay: Antifungal MIC (RPMI-1640 microdilution); assay type: cell-based; conditions: isolate Alt1
P. variotii = assay: Antifungal MIC (RPMI-1640 microdilution); assay type: cell-based; conditions: Paecilomyces variotii, isolate MYA-3630
Saksenaea sp. = assay: Antifungal MIC (RPMI-1640 microdilution); assay type: cell-based
Fusarium sp. = assay: Antifungal MIC (RPMI-1640 microdilution); assay type: cell-based
Histoplasma capsulatum = assay: microbe, parasite or virus in culture; assay type: cell-based
Aspergillus flavus = assay: Antifungal MIC (RPMI-1640 microdilution); assay type: cell-based
Coccidioides sp. = assay: microbe, parasite or virus in culture; assay type: cell-based
Staphylococcus aureus = assay: Antibacterial MIC (broth microdilution); assay type: cell-based
SARS-CoV-2 [1] = assay: microbe, parasite or virus in culture; assay type: cell-based
GPCMV strain 22122 = assay: GPCMV qPCR assay in Guinea Pig Lung cells; assay type: cell-based; conditions: Cavia porcellus, 168 h, 7 d
[2] = Tissue distribution of [14C]radio-labeled tafenoquine in male rats; assay type: in vivo, rat; conditions: for concentration of tafenoquine in lung: 25 mg base/kg single oral dose
Method: FIG. 3: Concentration of tafenoquine in microgram equivalents per g of tissue in various tissues of male rats 12 h following administration of [14C]radio-labeled tafenoquine (25 mg base/kg). Radioactivity was measured in the combusted organs of euthanized rats by liquid scintillation analysis.
In this study, a single oral dose of [14C]radio-labeled tafenoquine (25 mg base/kg) was given to 60 male rats, and then groups of 5 animals were killed at time points ranging from 30 minutes to 120 hours post-dose. Radioactivity in the combusted organs of killed animals was measured by liquid scintillation analysis. When expressed as microgram equivalents tafenoquine per gram of tissue, the concentration of tafenoquine in lung were at 0.5, 1, 6, 12, 24, 48, 72, 96, and 120 hours post-administration were 1.21, 6.43, 133, 154, 136, 119, 83.7, 59.4, and 44.4, respectively.

SARS-CoV-2 [3] = assay: SARS-CoV-2 antiviral assay in CALU-3 cells; assay type: cell-based; conditions: Severe acute respiratory syndrome coronavirus 2, medium with 10% fetal bovine serum, read-out: EC50 (same as IC50 of FIG. 4)
Babesia = conditions: mice; cited from earlier work
MCMV strain Smith = assay: MCMV qPCR assay in mouse embryo fibroblast cells; assay type: cell-based; conditions: 168 h, 7 d
SARS-CoV-2 [4] = assay: microbe, parasite or virus in culture; assay type: cell-based; conditions: Severe acute respiratory syndrome coronavirus 2, Vero C1008; Vero E6, moi 0.05, 48 hours, TCID50
Pneumocystis = conditions: cited from earlier work; for minimum dose required to reduce parasitemia nearly to zero: two to three week period
HCMV strain AD169 = assay: CPE assay for HCMV in HFF cells; assay type: cell-based; conditions: Human betaherpesvirus 5, AD169

COc1cc(C)c2c(Oc3cccc(C(F)(F)F)c3)c(OC)cc(NC(C)CCCN)c2n1.O=C(O)CCC(=O)O (centres unmarked) [Tafenoquine Succinate]
MIC (Enterococcus faecalis; ATCC29212, isolate ATCC 29212): 8 µg/mL | MIC (Enterococcus faecalis; isolate 1768): 8 µg/mL | MIC (P. aeruginosa; ATCC27853, isolate ATCC 27853): > 64 µg/mL | MIC (P. aeruginosa; isolate AR-230): > 64 µg/mL | MIC (P. aeruginosa; isolate J4242): > 64 µg/mL | MIC50 (Candida auris; Candidozyma auris, read-out: MIC 50% inhibition, isolate DI17-46): 4 µg/mL | MIC50 (Candida auris; Candidozyma auris, read-out: MIC 50% inhibition, isolate DI17-47): 4 µg/mL | MIC50 (Candida auris; Candidozyma auris, read-out: MIC 50% inhibition, isolate DI17-48): 2 µg/mL | MIC (Candida auris; Candidozyma auris, read-out: MIC 100% inhibition, isolate DI17-47): 4 µg/mL | MIC 100% inhibition (Candida auris; isolate DI17-46): 4 µg/mL | MIC 100% inhibition (Candida auris; isolate DI17-48): 4 µg/mL | MIC50 (Altenaria sp.; read-out: MIC 50% inhibition): 2 µg/mL | MIC (Altenaria sp.; read-out: MIC 100% inhibition): 4 µg/mL | MIC50 (P. variotii; read-out: MIC 50% inhibition): 4 µg/mL | MIC (P. variotii; read-out: MIC 100% inhibition): 4 µg/mL | MIC50 (Saksenaea sp.; read-out: MIC 50% inhibition, isolate Sak1): 4 µg/mL | MIC50 (Saksenaea sp.; read-out: MIC 50% inhibition, isolate Sak2): 2 µg/mL | MIC50 (Saksenaea sp.; read-out: MIC 50% inhibition, isolate Sak3): 8 µg/mL | MIC (Saksenaea sp.; read-out: MIC 100% inhibition, isolate Sak1): 8 µg/mL | MIC (Saksenaea sp.; read-out: MIC 100% inhibition, isolate Sak2): 2 µg/mL | MIC (Saksenaea sp.; read-out: MIC 100% inhibition, isolate Sak3): 8 µg/mL | MIC50 (Fusarium sp.; read-out: MIC 50% inhibition, isolate FO1): 8 µg/mL | MIC50 (Fusarium sp.; read-out: MIC 50% inhibition, isolate FS2): 16 µg/mL | MIC50 (Fusarium sp.; read-out: MIC 50% inhibition, isolate FSI): 8 µg/mL | MIC (Fusarium sp.; read-out: MIC 100% inhibition, isolate FO1): 16 µg/mL | MIC (Fusarium sp.; read-out: MIC 100% inhibition, isolate FS2): 16 µg/mL | MIC (Fusarium sp.; read-out: MIC 100% inhibition, isolate FSI): 16 µg/mL | MIC50 (Histoplasma capsulatum; read-out: MIC 50% inhibition, isolate HC1): 4 µg/mL | MIC50 (Histoplasma capsulatum; read-out: MIC 50% inhibition, isolate HC2): 2 µg/mL | MIC50 (Histoplasma capsulatum; read-out: MIC 50% inhibition, isolate HC3): 8 µg/mL | MIC (Histoplasma capsulatum; read-out: MIC 100% inhibition, isolate HC1): 4 µg/mL | MIC (Histoplasma capsulatum; read-out: MIC 100% inhibition, isolate HC2): 4 µg/mL | MIC (Histoplasma capsulatum; read-out: MIC 100% inhibition, isolate HC3): 8 µg/mL | MIC50 (Aspergillus flavus; ATCC204304, read-out: MIC 50% inhibition, isolate ATCC 204304): 4 µg/mL | MIC (Aspergillus flavus; ATCC204304, read-out: MIC 100% inhibition, isolate ATCC 204304): 4 µg/mL | MIC50 (Aspergillus flavus; read-out: MIC 50% inhibition, isolate Aflav2): 8 µg/mL | MIC50 (Aspergillus flavus; read-out: MIC 50% inhibition, isolate Aflav3): 4 µg/mL | MIC (Aspergillus flavus; read-out: MIC 100% inhibition, isolate Aflav2): 16 µg/mL | MIC (Aspergillus flavus; read-out: MIC 100% inhibition, isolate Aflav3): 8 µg/mL | MIC50 (Coccidioides sp.; read-out: MIC 50% inhibition, isolate Cocci1): 4 µg/mL | MIC50 (Coccidioides sp.; read-out: MIC 50% inhibition, isolate Cocci2): 16 µg/mL | MIC50 (Coccidioides sp.; read-out: MIC 50% inhibition, isolate D117-143): 16 µg/mL | MIC (Coccidioides sp.; read-out: MIC 100% inhibition, isolate Cocci1): 8 µg/mL | MIC (Coccidioides sp.; read-out: MIC 100% inhibition, isolate Cocci2): 16 µg/mL | MIC (Coccidioides sp.; read-out: MIC 100% inhibition, isolate D117-143): 16 µg/mL | MIC (Staphylococcus aureus; Staphylococcus aureus, ATCC29213, isolate ATCC 29213, read-out: MIC): 8 µg/mL | MIC (Staphylococcus aureus; Staphylococcus aureus, isolate 6215, read-out: MIC): 8 µg/mL | MIC (Staphylococcus aureus; isolate 6229): 8 µg/mL

COc1cc(C)c2c(Oc3cccc(C(F)(F)F)c3)c(OC)cc(NC(C)CCCN)c2n1 (centres unmarked) [Tafenoquine, N(4)-[2,6-Dimethoxy-4-methyl-5-[3-(trifluoromethyl)phenoxy]quinolin-8-yl]pentane-1,4-diamine]
selectivity index (SARS-CoV-2 [1]; 4-day assay): 2.4 | EC50 (SARS-CoV-2 [1]; Severe acute respiratory syndrome coronavirus 2, Vero C1008, 96 h): 15.7 µM | EC50 (GPCMV strain 22122): > 6 µM | concentration of tafenoquine in lung ([2]; 0.5 hours post-administration): 1.21 microgram equivalents tafenoquine per gram of tissue | concentration of tafenoquine in lung ([2]; 1 hour): 6.43 microgram equivalents tafenoquine per gram of tissue | concentration of tafenoquine in lung ([2]; 6 hours): 133 microgram equivalents tafenoquine per gram of tissue | concentration of tafenoquine in lung ([2]; 12 hours): 154 microgram equivalents tafenoquine per gram of tissue | concentration of tafenoquine in lung ([2]; 24 hours): 136 microgram equivalents tafenoquine per gram of tissue | concentration of tafenoquine in lung ([2]; 48 hours): 119 microgram equivalents tafenoquine per gram of tissue | concentration of tafenoquine in lung ([2]; 72 hours): 83.7 microgram equivalents tafenoquine per gram of tissue | concentration of tafenoquine in lung ([2]; 96 hours): 59.4 microgram equivalents tafenoquine per gram of tissue | concentration of tafenoquine in lung ([2]; 120 hours): 44.4 microgram equivalents tafenoquine per gram of tissue | lung:blood concentration ratio ([2]; rat): 250 | ratio of lung:plasma concentrations ([2]; rat): ~650 | tissue accumulation ([2]; rat, FIG. 3): accumulate in lung more than any other tissue in the body | EC50 (SARS-CoV-2 [3]): 8.6 µM | dose clearing Babesia parasitemia (Babesia): 20 mg/kg | EC50 (MCMV strain Smith): > 6 µM | EC50 (SARS-CoV-2 [4]): 2.6 µM | minimum dose required to reduce parasitemia nearly to zero (Pneumocystis; prophylaxis, once every 4 days orally): 4 mg/kg | Dose in female rats required to exhibit a statistically significant impairment of Pneumocystis replication (Pneumocystis; treatment modality): 2 mpk q 4 days and 2 mpk q 4 mpk q 4 days | minimum dose required to reduce parasitemia nearly to zero (Pneumocystis; treatment, daily orally): 4 mg/kg/day | EC50 (HCMV strain AD169): > 6 µM
